# Test results taken from paper PMC8368196, “Phase 1 study of the ATR inhibitor berzosertib (formerly M6620, VX-970) combined with gemcitabine ± cisplatin in patients with advanced solid tumours” (British Journal of Cancer, 2021).
# pIC50: −log10 of the molar value. Where two headings read alike, the source gives them in different places.
# How the values were obtained:
# ATR = test system: ATR; design: method as in PMID 23222511, PMID 25010037; settings: inhibitor of ATR; cited from earlier work
# [1] = test system: patients with advanced solid tumours
# Text: Part A was a 3 + 3 dose-escalation Phase 1 study evaluating the safety, tolerability, pharmacokinetics (PK) and preliminary efficacy of berzosertib in combination with gemcitabine with or without cisplatin (NCT02157792) (Fig. 1). Patients were enrolled in cohorts of three, with subsequent cohort expansion and dose-escalation decisions based on safety review, available PK data and observations of dose-limiting toxicities (DLTs) until the end of treatment cycle 1.
# A 7–14-day lead-in period with single ascending doses of intravenous (i.v.) berzosertib was planned to assess the safety of berzosertib monotherapy; the requirement for the lead-in period was removed after review of safety data both during the study and from a concurrent study of berzosertib monotherapy.[17] […] Based on preclinical studies, a starting dose of 18 mg/m^2 and a dosing regimen of i.v. berzosertib on days 2 and 9, ~24 ± 4 h after dosing with gemcitabine ± cisplatin, was selected.[17] […] Patients received i.v. gemcitabine on days 1 and 8, with or without i.v. cisplatin on day 1. […]
# Treatment-emergent adverse events (TEAEs) and DLTs were reported using National Cancer Institute (NCI) Common Terminology Criteria for Adverse Events (CTCAE) version 4.0. […] All AEs of any grade were recorded and followed up until resolution. Safety was evaluated throughout treatment and was used to inform dose-escalation decisions. […]
# [2] = Berzosertib plasma and urine pharmacokinetics (LC-MS/MS, non-compartmental analysis); format: in vivo, human; settings: for AUC(0-inf) / Cmax / clearance / Vd / half-life: iv, plasma; for Vd: read-out: Vss
# Experimental: PK assessments for berzosertib were conducted during the monotherapy lead-in and during cycles 1 and 2. Blood samples for berzosertib plasma PK assessments were collected following the single-agent dose, from day 1 of combination dosing (pre-dose, 0.5 h before the end of infusion, at end of infusion and 0.5, 1, 2, 3, 7, 23, 47 and 71 h after the end of infusion), on day 9 (pre-dose) and cycle 2 day 2 (pre-dose and 2 h after the end of infusion). Cumulative urine samples were collected for PK assessments on days 2 and 3 of cycle 1 (pre-dose—3, 3–7, 7–11 and 11–23 h). Berzosertib concentrations were quantified using a validated liquid chromatography tandem-mass spectrometry method and plasma PK was characterised by non-compartmental analyses using Phoenix WinNonlin 6.4 (Certara USA Inc, Princeton, NJ, USA).
# Safety data, baseline patient demographics and disease characteristics were summarised descriptively for the combination safety set—which included all enrolled patients who received at least one dose of study drug. PK data were collected in the PK analysis set, defined as all enrolled patients who received at least one dose of berzosertib and provided at least one measurable post-dose sample. […] Standard non-compartmental methods were used to determine PK parameters.
# [3] = human, 18 mg/m2, berzosertib 18 mg/m^2 i.v., lead-in period, berzosertib alone, mean (% CV), n = 3
# [4] = human, 36 mg/m2, berzosertib 36 mg/m^2 i.v., lead-in period, berzosertib alone, mean (% CV), n = 3
# [5] = human, 60 mg/m2, berzosertib 60 mg/m^2 i.v., lead-in period, berzosertib alone, mean (% CV), n = 4
# [6] = human, 72 mg/m2, berzosertib 72 mg/m^2 i.v., lead-in period, berzosertib alone, mean (% CV), n = 7
# [7] = human, 90 mg/m2, berzosertib 90 mg/m^2 i.v., lead-in period, berzosertib alone, mean (% CV), n = 6
# [8] = human, 140 mg/m2, berzosertib 140 mg/m^2 i.v., lead-in period, berzosertib alone, mean (% CV), n = 5
# [9] = human, 210 mg/m2, berzosertib 210 mg/m^2 i.v., lead-in period, berzosertib alone, mean (% CV), n = 2
smiles,measurement,setting,value
CNCc1ccc(-c2cc(-c3nc(-c4ccc(S(=O)(=O)C(C)C)cc4)cnc3N)on2)cc1 [Berzosertib],pIC50,ATR,7.72
same,"Trends in laboratory results (serum chemistry, haematology, urinalysis), vital signs or ECG parameters attributable to treatment",[1]; in vivo,no clinically meaningful trends
same,Patients with acute hypersensitivity,"[1]; on second infusion of berzosertib, no clear relationship to dose",< 5%
same,Dose proportionality of exposure,[2]; from 18 to 210 mg/m^2,approximately dose-proportional
same,CL renal,"[2]; human, intravenous, part A, urine, read-out: Mean renal clearance (converted)",60 mL/min
same,AUC(0-inf),[2]; [3],351 ng·h/mL
same,Cmax,[2]; [3],72 ng/mL
same,clearance,[2]; [3],1640 mL/min
same,Vd,[2]; [3],1600 L
same,half-life,"[2]; human, 18 mg/m2, berzosertib 18 mg/m^2 i.v., lead-in period, berzosertib alone, mean (% CV), n = 3, read-out: t½ (converted)",840 min
same,AUC(0-inf),[2]; [4],913 ng·h/mL
same,Cmax,[2]; [4],176 ng/mL
same,clearance,[2]; [4],1500 mL/min
same,Vd,[2]; [4],1280 L
same,half-life,"[2]; human, 36 mg/m2, berzosertib 36 mg/m^2 i.v., lead-in period, berzosertib alone, mean (% CV), n = 3, read-out: t½ (converted)",852 min
same,AUC(0-inf),[2]; [5],1700 ng·h/mL
same,Cmax,[2]; [5],345 ng/mL
same,clearance,[2]; [5],1300 mL/min
same,Vd,[2]; [5],1280 L
same,half-life,"[2]; human, 60 mg/m2, berzosertib 60 mg/m^2 i.v., lead-in period, berzosertib alone, mean (% CV), n = 4, read-out: t½ (converted)",900 min
same,AUC(0-inf),[2]; [6],2280 ng·h/mL
same,Cmax,[2]; [6],536 ng/mL
same,clearance,[2]; [6],1040 mL/min
same,Vd,[2]; [6],1040 L
same,half-life,"[2]; human, 72 mg/m2, berzosertib 72 mg/m^2 i.v., lead-in period, berzosertib alone, mean (% CV), n = 7, read-out: t½ (converted)",912 min
same,AUC(0-inf),[2]; [7],2370 ng·h/mL
same,Cmax,[2]; [7],451 ng/mL
same,clearance,[2]; [7],1240 mL/min
same,Vd,[2]; [7],1320 L
same,half-life,"[2]; human, 90 mg/m2, berzosertib 90 mg/m^2 i.v., lead-in period, berzosertib alone, mean (% CV), n = 6, read-out: t½ (converted)",1030 min
same,AUC(0-inf),[2]; [8],4550 ng·h/mL
same,Cmax,[2]; [8],817 ng/mL
same,clearance,[2]; [8],1010 mL/min
same,Vd,[2]; [8],1150 L
same,half-life,"[2]; human, 140 mg/m2, berzosertib 140 mg/m^2 i.v., lead-in period, berzosertib alone, mean (% CV), n = 5, read-out: t½ (converted)",1020 min
same,AUC(0-inf),[2]; [9],6130 ng·h/mL
same,Cmax,[2]; [9],808 ng/mL
same,clearance,[2]; [9],1270 mL/min
same,Vd,[2]; [9],1550 L
same,half-life,"[2]; human, 210 mg/m2, berzosertib 210 mg/m^2 i.v., lead-in period, berzosertib alone, mean (% CV), n = 2, read-out: t½ (converted)",1010 min
same,half-life,"[2]; human, i.v., 18–210 mg/m^2, read-out: Apparent terminal half-life (converted)",~1020 min
same,"PK when administered ~24 h after gemcitabine, with or without cisplatin, versus berzosertib alone",[2]; in vivo,not significantly different
same,Mean percentage excreted in the urine,[2]; part A,5%
same,Accumulation,[2]; weekly administration,not observed
